Experimental data published in patent US11517568B2, “Compounds and methods for treating nematode infections” (The Governing Council of The University of Toronto, priority 2018, dated 2022).
Where two headings read alike, the source gives them in different places.

How the values were obtained:
[1] = test system: L3 animals; assay: Abnormal locomotory behaviour of L3 animals on solid agar (extended SAR); assay type: in vivo, Caenorhabditis elegans; conditions: for pest or weed control at 3.75 µM / pest or weed control at 15 µM / pest or weed control at 60 µM: Caenorhabditis elegans
Description: 20 animals were scored after either 1, 6 or 24 hours of exposure to drug (as indicated) per replicate. […] Data are reported as the mean % of animals with abnormal phenotype over 4 independent replicates.

[2] = test system: wild type fourth-stage C. elegans larvae (L4s); assay: Locomotory defects (coiled and/or paralysis) in wild type fourth-stage C. elegans larvae on solid substrate; assay type: in vivo, Caenorhabditis elegans; conditions: for Activity (%): percent of animals that show coiled and/or paralysis: 60 μM, after 60 min on solid substrate, L4 C. elegans
Description: A preliminary first round of SAR analyses using analogs of exemplary compound Ia was performed and the analogs' ability to induce locomotory defects in wild type fourth-stage C. elegans larvae (L4s) was tested.
If phenotype is observed, a dose-response analysis is performed.

[3] = 3.75 uM, 1 h exposure, L3, mean of 4 replicates, read-out: % any phene 1 h (conc.) 3.75
[4] = 3.75 uM, 6 h exposure, L3, mean of 4 replicates, read-out: % any phene 6 h (conc.) 3.75
[5] = 3.75 uM, 24 h exposure, L3, mean of 4 replicates, read-out: % any phene 24 h (conc.) 3.75
[6] = 15 uM, 6 h exposure, L3, mean of 4 replicates, read-out: % any phene 6 h (conc.) 15
[7] = 15 uM, 24 h exposure, L3, mean of 4 replicates, read-out: % any phene 24 h (conc.) 15
[8] = 60 uM, 1 h exposure, L3, mean of 4 replicates, read-out: % any phene 1 h (conc.) 60
[9] = 60 uM, 6 h exposure, L3, mean of 4 replicates, read-out: % any phene 6 h (conc.) 60
[10] = 60 uM, 24 h exposure, L3, mean of 4 replicates, read-out: % any phene 24 h (conc.) 60
[11] = 15 uM, 1 h exposure, L3, mean of 4 replicates, read-out: % any phene 1 h (conc.) 15
[12] = 1 h, read-out: % any phene 1 h (conc.) 3.75
[13] = 1 h, read-out: % any phene 1 h (conc.) 15
[14] = 1 h, read-out: % any phene 1 h (conc.) 60
[15] = 6 h, read-out: % any phene 6 h (conc.) 3.75
[16] = 6 h, read-out: % any phene 6 h (conc.) 15
[17] = 6 h, read-out: % any phene 6 h (conc.) 60
[18] = 24 h, read-out: % any phene 24 h (conc.) 3.75
[19] = 24 h, read-out: % any phene 24 h (conc.) 15
[20] = 24 h, read-out: % any phene 24 h (conc.) 60

SMILES | pest or weed control at 3.75 µM [1, 3] | pest or weed control at 3.75 µM [1, 4] | pest or weed control at 3.75 µM [1, 5] | pest or weed control at 15 µM [1, 6] | pest or weed control at 15 µM [1, 7] | pest or weed control at 60 µM [1, 8] | pest or weed control at 60 µM [1, 9] | pest or weed control at 60 µM [1, 10] | pest or weed control at 15 µM [1, 11] | further results
O=[N+]([O-])c1ccc(N2CCN(C3CCCCCCC3)CC2)cc1 [Is] | 3.3% | 0% | 0% | 15% | 0% | 100% | 62.5% | 13.3% |  | 
c1ccc(N2CCN(C3CCCCCCC3)CC2)cc1 [Icc] | 46.7% | 0% | 0% | 0.8% | 0% | 100% | 33.3% | 0% | 93.3% | 
CCC1CCC(N2CCN(c3ccc([N+](=O)[O-])cc3)CC2)CC1 (stereo not drawn) [Ic] | 29.2% | 8.3% | 0% | 80.8% | 89.2% | 100% | 100% | 100% | 95.9% | Activity (%): percent of animals that show coiled and/or paralysis [2]: 71% +/− 2.1
O=[N+]([O-])c1ccc(N2CCN(Cc3ccccc3)CC2)cc1 [Im] |  |  |  |  |  |  |  |  |  | Activity (%): percent of animals that show coiled and/or paralysis [2]: 0.00%; % any phene 1 h (conc.) 3.75 ([1]; 3.75 uM, 1 h exposure, L3, mean of 4 replicates): 0.0%; % any phene 6 h (conc.) 3.75 ([1]; 3.75 uM, 6 h exposure, L3, mean of 4 replicates): 0.0%; % any phene 24 h (conc.) 3.75 ([1]; 3.75 uM, 24 h exposure, L3, mean of 4 replicates): 0.0%; % any phene 1 h (conc.) 15 ([1]; 15 uM, 1 h exposure, L3, mean of 4 replicates): 7.5%; % any phene 6 h (conc.) 15 ([1]; 15 uM, 6 h exposure, L3, mean of 4 replicates): 3.3%; % any phene 24 h (conc.) 15 ([1]; 15 uM, 24 h exposure, L3, mean of 4 replicates): 0.0%; % any phene 1 h (conc.) 60 ([1]; 60 uM, 1 h exposure, L3, mean of 4 replicates): 44.2%; % any phene 6 h (conc.) 60 ([1]; 60 uM, 6 h exposure, L3, mean of 4 replicates): 30.8%; % any phene 24 h (conc.) 60 ([1]; 60 uM, 24 h exposure, L3, mean of 4 replicates): 0.0%
Clc1ccc(N2CCN(CC3CCCCC3)CC2)cc1 [Ih] |  |  |  |  |  |  |  |  |  | pest or weed control at 3.75 µM [1, 12]: 0%; pest or weed control at 15 µM [1, 13]: 27.5%; pest or weed control at 60 µM [1, 14]: 55.7%; pest or weed control at 3.75 µM [1, 15]: 0%; pest or weed control at 15 µM [1, 16]: 0%; pest or weed control at 60 µM [1, 17]: 5.8%; pest or weed control at 3.75 µM [1, 18]: 0%; pest or weed control at 15 µM [1, 19]: 0%; pest or weed control at 60 µM [1, 20]: 10.8%
Fc1ccc(N2CCN(CC3CC=CCC3)CC2)cc1 (stereo not drawn) [Iy] | 22.5% | 0% | 0% | 35% | 0% | 100% | 99.2% | 58.3% | 77.5% | 
O=[N+]([O-])c1ccc(N2CCN(CC3CCCC3)CC2)cc1 [If] |  |  |  |  |  |  |  |  |  | Activity (%): percent of animals that show coiled and/or paralysis [2]: 98% +/− 1.9; rank among analogs for inducing locomotory defects ([2]; SAR comparison with compound Ia analogs): most potent analog to date
O=[N+]([O-])c1ccc(N2CCN(C3CCCCCC3)CC2)cc1 [Ir] | 43.3% | 9.2% | 0% | 88.3% | 30% | 100% | 100% | 100% |  | 
CC1CCC(N2CCN(c3ccc(F)cc3)CC2)CC1 (stereo not drawn) [Ibb] |  | 5% | 0% | 75.8% | 13.3% | 100% | 100% | 100% |  | 
Fc1ccc(N2CCN(CC3CCCCC3)CC2)cc1 [Ig] |  |  |  |  |  |  |  |  |  | pest or weed control at 3.75 µM [1, 12]: 21.7%; pest or weed control at 15 µM [1, 13]: 44.2%; pest or weed control at 60 µM [1, 14]: 95%; pest or weed control at 3.75 µM [1, 15]: 0.8%; pest or weed control at 15 µM [1, 16]: 9.2%; pest or weed control at 60 µM [1, 17]: 79.2%; pest or weed control at 3.75 µM [1, 18]: 0%; pest or weed control at 15 µM [1, 19]: 4.2%; pest or weed control at 60 µM [1, 20]: 66.7%
Clc1ccc(N2CCN(C3CCCCCC3)CC2)cc1 [Idd] |  | 86.7% | 34.2% | 100% | 98.3% | 100% | 97.5% | 97.5% | 100% | 
c1ccc(N2CCN(C3CCCCCC3)CC2)cc1 [Iff] | 24.2% | 6.7% | 0% | 28.3% | 0% | 100% | 51.7% | 0% | 98.3% | 
C1CNCCN1 [Piperazine, reference compound] |  |  |  |  |  |  |  |  |  | Activity (%): percent of animals that show coiled and/or paralysis [2]: 0.00%
c1ccc(N2CCN(CC3CCCC3)CC2)cc1 [Ihh] | 4.2% | 0% | 0% | 1.7% | 0% | 100% | 53.3% | 5% | 70% | 
Clc1ccc(N2CCN(CC3CC4C=CC3C4)CC2)cc1 (stereo not drawn) [Ix] | 89.2% | 100% | 66.7% | 100% | 100% | 100% | 100% | 100% | 100% | 
Fc1ccc(N2CCN(C3CCCCCC3)CC2)cc1 [Iaa] | 45% | 6.7% | 0% | 27.5% | 0% | 100% | 97.5% | 69.2% | 89.2% | 
CC1CCC(N2CCN(c3ccccc3)CC2)CC1 (stereo not drawn) [Iz] | 60.8% | 0% | 0% | 6.7% | 0% | 99.2% | 85% | 14.2% | 96.7% | 
